Experimental data as given in patent publication US7074789B2, “Kinase inhibitors” (Amgen Inc., priority 1999, dated 2006).
Read-outs that look alike come from different tables or passages of the source.

Experiments:
Type in all cases: biochemical
c-Met = molecular target: T1, c-Met (Homo sapiens, UniProt P08581); assay: Kinase inhibition assay (33P transfer), c-Met; conditions: Table 2, kinase inhibition class; read-out: Met-1
T1 construct: Kinases are expressed as either kinase domains or full length constructs; made in house
T1 sequence (P08581 25-1390): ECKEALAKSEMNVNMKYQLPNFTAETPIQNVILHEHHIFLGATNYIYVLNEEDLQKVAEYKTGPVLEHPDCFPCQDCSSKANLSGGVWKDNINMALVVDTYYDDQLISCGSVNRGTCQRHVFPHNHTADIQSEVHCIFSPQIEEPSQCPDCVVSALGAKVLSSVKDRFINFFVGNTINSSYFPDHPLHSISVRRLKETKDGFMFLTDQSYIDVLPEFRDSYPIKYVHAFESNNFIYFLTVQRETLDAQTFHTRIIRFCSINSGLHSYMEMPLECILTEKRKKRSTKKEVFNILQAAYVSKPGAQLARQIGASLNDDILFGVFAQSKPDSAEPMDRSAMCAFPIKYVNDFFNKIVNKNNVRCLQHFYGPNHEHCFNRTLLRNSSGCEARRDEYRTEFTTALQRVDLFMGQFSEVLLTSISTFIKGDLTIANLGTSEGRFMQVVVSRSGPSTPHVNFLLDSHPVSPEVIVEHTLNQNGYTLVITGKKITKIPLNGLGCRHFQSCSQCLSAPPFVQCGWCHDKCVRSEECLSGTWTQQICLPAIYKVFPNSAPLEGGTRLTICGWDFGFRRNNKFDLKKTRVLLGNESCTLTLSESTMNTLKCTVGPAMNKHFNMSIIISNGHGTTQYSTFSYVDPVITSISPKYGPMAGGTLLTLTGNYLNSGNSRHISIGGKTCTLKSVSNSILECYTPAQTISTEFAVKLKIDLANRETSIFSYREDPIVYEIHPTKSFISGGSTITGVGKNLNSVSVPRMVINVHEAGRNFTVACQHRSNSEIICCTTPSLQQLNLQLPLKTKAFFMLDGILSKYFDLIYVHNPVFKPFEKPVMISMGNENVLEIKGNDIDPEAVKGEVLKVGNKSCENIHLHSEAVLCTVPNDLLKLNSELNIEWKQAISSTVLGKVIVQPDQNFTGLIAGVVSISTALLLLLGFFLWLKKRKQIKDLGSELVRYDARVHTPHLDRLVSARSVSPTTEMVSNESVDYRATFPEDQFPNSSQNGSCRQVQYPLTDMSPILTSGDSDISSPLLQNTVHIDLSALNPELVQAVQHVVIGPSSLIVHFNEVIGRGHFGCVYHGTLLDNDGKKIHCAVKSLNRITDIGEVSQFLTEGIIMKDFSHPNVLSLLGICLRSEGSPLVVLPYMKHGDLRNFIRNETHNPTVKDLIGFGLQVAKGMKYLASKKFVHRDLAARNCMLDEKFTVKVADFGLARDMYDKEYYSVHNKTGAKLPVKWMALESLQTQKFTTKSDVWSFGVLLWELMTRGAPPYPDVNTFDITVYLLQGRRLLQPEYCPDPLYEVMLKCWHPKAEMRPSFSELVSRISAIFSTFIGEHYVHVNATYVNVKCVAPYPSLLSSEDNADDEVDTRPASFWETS
Procedure, shortened: (§1)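 Recombinant kinase domains or full-length GST- or His-tagged constructs, from E. coli or baculovirus/High Five cells, sometimes with regulatory polypeptides. Transfer of 33P from ATP to plate-bound poly(Glu,Tyr) 4:1 or poly(Arg,Ser) 3:1 counted by liquid scintillation after phosphoric acid wash; IC50 is the concentration halving incorporation.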

Lck = molecular target: T2, Lck (Homo sapiens, UniProt P06239); assay: Kinase inhibition assay (33P transfer), Lck; conditions: read-out: Lck-1
T2 construct: Kinases are expressed as either kinase domains or full length constructs; made in house
T2 sequence (P06239 whole entry, species assumed, the tested form may be a part): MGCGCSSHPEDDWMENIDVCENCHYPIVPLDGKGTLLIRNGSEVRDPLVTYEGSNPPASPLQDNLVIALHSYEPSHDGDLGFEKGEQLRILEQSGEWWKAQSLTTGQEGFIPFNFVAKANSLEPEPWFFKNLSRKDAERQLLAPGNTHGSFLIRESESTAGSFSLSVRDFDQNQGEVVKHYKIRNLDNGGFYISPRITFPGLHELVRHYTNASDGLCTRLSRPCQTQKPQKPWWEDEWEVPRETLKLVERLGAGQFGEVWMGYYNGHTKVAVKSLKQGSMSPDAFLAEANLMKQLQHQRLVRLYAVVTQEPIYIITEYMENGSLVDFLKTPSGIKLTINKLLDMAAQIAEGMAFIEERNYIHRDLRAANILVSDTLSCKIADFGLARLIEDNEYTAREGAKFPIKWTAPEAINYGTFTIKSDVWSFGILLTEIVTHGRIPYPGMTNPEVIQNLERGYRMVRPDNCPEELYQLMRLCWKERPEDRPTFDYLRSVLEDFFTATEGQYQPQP
Procedure, shortened: (§2)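 Recombinant kinase-domain or full-length fusion proteins (GST or His tag) served as enzyme. Substrate poly(Glu,Tyr) 4:1 or poly(Arg,Ser) 3:1 was bound to the plate; transferred 33P was read by liquid scintillation following acid washing.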

Itk = molecular target: T3, Itk (Homo sapiens, UniProt Q08881); assay: Kinase inhibition assay (33P transfer), Itk; conditions: read-out: Itk-1
T3 construct: Kinases are expressed as either kinase domains or full length constructs; made in house
T3 sequence (Q08881 1-620): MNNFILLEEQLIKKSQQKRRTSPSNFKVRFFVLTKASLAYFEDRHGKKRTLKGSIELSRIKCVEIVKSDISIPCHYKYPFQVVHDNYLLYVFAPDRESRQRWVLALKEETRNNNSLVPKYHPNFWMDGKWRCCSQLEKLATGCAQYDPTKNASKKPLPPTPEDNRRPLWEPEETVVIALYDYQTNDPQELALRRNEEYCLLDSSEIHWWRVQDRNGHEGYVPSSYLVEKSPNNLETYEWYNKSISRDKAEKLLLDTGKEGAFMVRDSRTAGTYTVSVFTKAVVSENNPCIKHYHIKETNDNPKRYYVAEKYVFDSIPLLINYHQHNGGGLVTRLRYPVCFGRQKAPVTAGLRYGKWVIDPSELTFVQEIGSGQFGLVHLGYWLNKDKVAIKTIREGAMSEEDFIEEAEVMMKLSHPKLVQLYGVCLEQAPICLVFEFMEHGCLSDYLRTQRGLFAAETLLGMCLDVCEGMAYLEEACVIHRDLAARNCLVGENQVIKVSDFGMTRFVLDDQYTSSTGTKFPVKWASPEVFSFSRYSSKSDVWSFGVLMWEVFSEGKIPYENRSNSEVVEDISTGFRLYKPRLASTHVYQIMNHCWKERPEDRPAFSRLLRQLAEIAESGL
Procedure, shortened: as §1

AKT = molecular target: T4, AKT (Homo sapiens, UniProt Q9Y243); assay: Kinase inhibition assay (33P transfer), AKT; conditions: Table 2, kinase inhibition class; read-out: AKT3-1
T4 construct: Kinases are expressed as either kinase domains or full length constructs; made in house
T4 sequence (Q9Y243 whole entry, the tested form may be a part): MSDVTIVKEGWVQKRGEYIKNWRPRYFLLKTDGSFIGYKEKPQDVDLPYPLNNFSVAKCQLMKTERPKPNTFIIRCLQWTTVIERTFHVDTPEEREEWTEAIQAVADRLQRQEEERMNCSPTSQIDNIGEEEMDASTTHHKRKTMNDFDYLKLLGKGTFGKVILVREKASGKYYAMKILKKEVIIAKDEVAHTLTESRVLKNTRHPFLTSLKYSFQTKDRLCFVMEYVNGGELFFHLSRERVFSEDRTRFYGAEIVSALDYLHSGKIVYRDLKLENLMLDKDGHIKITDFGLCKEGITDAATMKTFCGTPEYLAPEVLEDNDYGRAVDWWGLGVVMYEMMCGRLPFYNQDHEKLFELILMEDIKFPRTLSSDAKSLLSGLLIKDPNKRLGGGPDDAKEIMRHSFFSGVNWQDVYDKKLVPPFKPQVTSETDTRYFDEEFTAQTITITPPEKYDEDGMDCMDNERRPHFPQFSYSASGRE
Procedure, shortened: as §2

Zap-70 = molecular target: T5, Zap-70 (Homo sapiens, UniProt P43403); assay: Kinase inhibition assay (33P transfer), Zap-70; conditions: read-out: Zap-1
T5 construct: Kinases are expressed as either kinase domains or full length constructs; made in house
T5 sequence (P43403 1-619): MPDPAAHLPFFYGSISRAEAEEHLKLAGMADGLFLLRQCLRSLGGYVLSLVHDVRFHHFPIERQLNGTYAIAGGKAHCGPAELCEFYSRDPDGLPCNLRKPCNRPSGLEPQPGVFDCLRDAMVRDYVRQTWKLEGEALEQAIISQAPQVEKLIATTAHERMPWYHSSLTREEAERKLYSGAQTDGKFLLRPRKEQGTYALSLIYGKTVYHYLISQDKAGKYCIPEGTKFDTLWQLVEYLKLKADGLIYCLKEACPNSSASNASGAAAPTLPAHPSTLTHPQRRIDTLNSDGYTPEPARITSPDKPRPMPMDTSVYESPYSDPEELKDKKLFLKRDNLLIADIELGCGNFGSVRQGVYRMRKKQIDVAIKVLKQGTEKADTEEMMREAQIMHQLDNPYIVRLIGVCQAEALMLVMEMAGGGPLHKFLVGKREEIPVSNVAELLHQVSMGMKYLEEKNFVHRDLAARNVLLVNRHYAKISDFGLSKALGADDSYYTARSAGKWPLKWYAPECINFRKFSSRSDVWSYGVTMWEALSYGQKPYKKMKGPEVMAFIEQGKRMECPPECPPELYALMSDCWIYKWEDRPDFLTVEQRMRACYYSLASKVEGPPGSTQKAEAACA
Procedure, shortened: as §2

Kdr = molecular target: T6, Kdr (Homo sapiens, UniProt P35968); assay: Kinase inhibition assay (33P transfer), Kdr; conditions: read-out: KDR-1
T6 construct: Kinases are expressed as either kinase domains or full length constructs; made in house
T6 sequence (P35968 20-1356, species assumed): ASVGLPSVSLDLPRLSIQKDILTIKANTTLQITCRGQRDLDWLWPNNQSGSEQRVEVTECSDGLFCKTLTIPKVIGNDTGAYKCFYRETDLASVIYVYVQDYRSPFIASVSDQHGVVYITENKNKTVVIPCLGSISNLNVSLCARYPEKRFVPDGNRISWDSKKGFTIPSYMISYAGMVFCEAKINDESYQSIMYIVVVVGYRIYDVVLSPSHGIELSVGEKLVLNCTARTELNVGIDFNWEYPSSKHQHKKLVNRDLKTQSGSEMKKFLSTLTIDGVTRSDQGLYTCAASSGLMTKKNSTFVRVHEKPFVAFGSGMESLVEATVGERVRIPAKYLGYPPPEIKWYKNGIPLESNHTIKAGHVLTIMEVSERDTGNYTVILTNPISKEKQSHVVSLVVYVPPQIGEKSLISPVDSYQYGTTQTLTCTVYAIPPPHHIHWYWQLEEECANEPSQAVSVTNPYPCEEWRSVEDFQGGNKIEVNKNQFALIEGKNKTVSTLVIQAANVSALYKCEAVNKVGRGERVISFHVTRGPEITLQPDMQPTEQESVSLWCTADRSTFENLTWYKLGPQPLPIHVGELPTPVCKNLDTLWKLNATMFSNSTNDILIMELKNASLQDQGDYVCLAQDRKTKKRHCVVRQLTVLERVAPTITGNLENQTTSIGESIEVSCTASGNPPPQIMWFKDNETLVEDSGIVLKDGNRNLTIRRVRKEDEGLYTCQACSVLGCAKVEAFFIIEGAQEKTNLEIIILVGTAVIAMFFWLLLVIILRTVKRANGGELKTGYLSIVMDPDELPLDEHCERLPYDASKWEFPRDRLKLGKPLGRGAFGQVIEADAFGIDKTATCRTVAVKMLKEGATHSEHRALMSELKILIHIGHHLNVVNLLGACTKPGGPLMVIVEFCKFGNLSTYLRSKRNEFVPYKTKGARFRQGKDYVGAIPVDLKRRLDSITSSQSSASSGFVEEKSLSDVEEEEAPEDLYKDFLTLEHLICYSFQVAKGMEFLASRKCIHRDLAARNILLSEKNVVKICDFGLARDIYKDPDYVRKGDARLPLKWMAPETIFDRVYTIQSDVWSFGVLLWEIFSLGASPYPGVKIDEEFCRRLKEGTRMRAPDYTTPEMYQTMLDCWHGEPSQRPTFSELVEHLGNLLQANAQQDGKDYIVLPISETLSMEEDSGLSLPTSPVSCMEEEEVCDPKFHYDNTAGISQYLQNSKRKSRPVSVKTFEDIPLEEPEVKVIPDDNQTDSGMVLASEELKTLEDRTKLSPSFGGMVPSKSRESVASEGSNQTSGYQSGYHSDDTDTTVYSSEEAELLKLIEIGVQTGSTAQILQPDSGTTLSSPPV
Procedure, shortened: as §2

EGFR = molecular target: T7, EGFR (Homo sapiens, UniProt P00533); assay: Kinase inhibition assay (33P transfer), EGFR; conditions: Table 2, kinase inhibition class; read-out: EGFR-1
T7 construct: Kinases are expressed as either kinase domains or full length constructs; made in house
T7 sequence (P00533 25-1210, species assumed): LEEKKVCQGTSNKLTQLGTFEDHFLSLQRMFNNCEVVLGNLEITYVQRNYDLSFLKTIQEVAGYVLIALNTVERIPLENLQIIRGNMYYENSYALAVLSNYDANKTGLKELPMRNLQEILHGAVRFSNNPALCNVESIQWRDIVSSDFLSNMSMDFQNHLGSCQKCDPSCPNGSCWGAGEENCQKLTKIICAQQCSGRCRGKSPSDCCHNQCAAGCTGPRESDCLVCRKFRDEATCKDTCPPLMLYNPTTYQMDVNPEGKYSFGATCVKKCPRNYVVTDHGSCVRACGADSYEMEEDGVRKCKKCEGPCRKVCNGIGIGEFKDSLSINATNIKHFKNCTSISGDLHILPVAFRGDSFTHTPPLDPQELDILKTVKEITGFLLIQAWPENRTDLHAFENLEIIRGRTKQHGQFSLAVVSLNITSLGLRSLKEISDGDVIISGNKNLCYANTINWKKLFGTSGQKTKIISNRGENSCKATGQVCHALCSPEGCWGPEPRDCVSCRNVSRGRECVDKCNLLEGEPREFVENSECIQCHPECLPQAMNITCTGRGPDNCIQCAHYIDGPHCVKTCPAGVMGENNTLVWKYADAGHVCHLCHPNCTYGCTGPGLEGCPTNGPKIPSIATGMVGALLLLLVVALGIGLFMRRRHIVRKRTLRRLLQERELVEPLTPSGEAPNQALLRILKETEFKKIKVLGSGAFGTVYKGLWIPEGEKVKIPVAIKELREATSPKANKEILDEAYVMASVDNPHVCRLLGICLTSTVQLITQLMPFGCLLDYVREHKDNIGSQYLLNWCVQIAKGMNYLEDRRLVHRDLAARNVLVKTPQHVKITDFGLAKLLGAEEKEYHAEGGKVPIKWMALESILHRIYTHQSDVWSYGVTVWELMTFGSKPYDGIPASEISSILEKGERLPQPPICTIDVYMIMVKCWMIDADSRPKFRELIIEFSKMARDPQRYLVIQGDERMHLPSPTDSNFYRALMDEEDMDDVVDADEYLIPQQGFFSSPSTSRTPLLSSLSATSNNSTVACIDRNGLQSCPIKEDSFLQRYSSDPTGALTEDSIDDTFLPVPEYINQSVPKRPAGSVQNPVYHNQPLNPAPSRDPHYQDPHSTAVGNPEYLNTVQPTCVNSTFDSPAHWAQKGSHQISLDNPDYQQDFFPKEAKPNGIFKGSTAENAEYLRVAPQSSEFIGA
Procedure, shortened: as §1

Tek = molecular target: T8, Tek (Homo sapiens, UniProt Q02763); assay: Kinase inhibition assay (33P transfer), Tek; conditions: read-out: Tek-1
T8 construct: Kinases are expressed as either kinase domains or full length constructs; made in house
From the text: The inhibitor compounds described herein are screened in the following manner. Kinases suitable for use in the following protocol to determine kinase activity of the compounds described herein include, -but are not limited to: Lck, Lyn, Src, Fyn, Syk, Zap-70, Itk, Tec, Btk, EGFR, ErbB2, Kdr, Flt-1, Flt-3, Tek, c-Met, InsR, and AKT.
Kinases are expressed as either kinase domains or full length constructs fused to glutathione S-transferase (GST) or polyHistidine tagged fusion proteins in either E. colior Baculovirus-High Five expression systems. They are purified to near homogeneity by affinity chromatography essentially as previously described (Lehr et al., 1996; Gish et al., 1995). In some instances, kinases are co-expressed or mixed with purified or partially purified regulatory polypeptides prior to measurement of activity.
Kinase activity and inhibition are measured essentially by established protocols (Braunwalder et al., 1996). Briefly, The transfer of ^33PO4 from ATP to the synthetic substrates poly(Glu, Tyr) 4:1 or poly(Arg, Ser) 3:1 attached to the bioactive surface of microtiter plates serves as the basis to evaluate enzyme activity. After an incubation period, the amount of phosphate transferred is measured by first washing the plate with 0.5% phosphoric acid, adding liquid scintillant, and then counting in a liquid scintillation detector. The IC50 is determined by the concentration of compound that causes a 50% reduction in the amount of […] incorporated onto the substrate bound to the plate.

Compound | IC50 (c-Met) [µM] | IC50 (Lck) [µM] | IC50 (Itk) [µM] | IC50 (AKT) [µM] | IC50 (Zap-70) [µM] | IC50 (Kdr) [µM] | IC50 (EGFR) [µM] | IC50 (Tek) [µM] | IC50 (Lck; Table 3) [µM] | IC50 (Itk; Table 3) [µM] | IC50 (Zap-70; Table 3) [µM] | IC50 (Kdr; Table 3) [µM]
O=c1[nH]c2ccccc2n1-c1ncnc(Nc2ccc(C(F)(F)F)cc2)n1 [Compound 505] | > 12.1 | > 12.1 | > 12.1 | > 12.1 | 9.4 to 12.1 | > 12.1 | > 12.1 | 6.45 to 9.4 |  |  |  | 
O=c1[nH]c2ccccc2n1-c1ncnc(Nc2ccc(NS(=O)(=O)c3ccc([N+](=O)[O-])cc3)cc2)n1 [Compound 422] | > 8.92 |  |  | 0.793 to 4.76 |  |  | 0.793 to 4.76 | 6.94 to 8.92 | > 8.92 | > 8.92 | > 8.92 | 0.793 to 4.76
COc1ccc(-c2ncnc(Nc3cc(OC)c(OC)c(OC)c3)n2)cc1OC [Compound 230] | > 11.3 | 1 to 6.02 | 8.78 to 11.3 | > 11.3 | > 11.3 | < 1 | 8.78 to 11.3 | 8.78 to 11.3 |  |  |  | 
Nc1ncnc(-n2c(N)nc3ccccc32)n1 [Compound 646] | > 19.8 | > 19.8 | 10.6 to 15.4 | 1.76 to 10.6 | > 19.8 | 1.76 to 10.6 | > 19.8 | > 19.8 |  |  |  | 
COc1cc(Nc2ncnc(-n3c(N(C)C)nc4ccccc43)n2)cc(OC)c1OC [Compound 405] | > 10.7 |  |  | > 10.7 |  |  | > 10.7 | > 10.7 | > 10.7 | > 10.7 | > 10.7 | 0.949 to 5.69
CCOC(=O)Cc1ccc(Nc2ncnc(Nc3cc(-c4ccco4)n[nH]3)n2)cc1 [Compound 432] | 0.987 to 5.92 |  |  | > 11.1 |  |  | 0.987 to 5.92 | > 11.1 | > 11.1 | 8.63 to 11.1 | > 11.1 | 0.987 to 5.92
O=c1[nH]c2ccccc2n1-c1ncnc(Nc2cccc([N+](=O)[O-])c2)n1 [Compound 467] | > 12.9 |  |  | > 12.9 |  |  | > 12.9 | 6.87 to 10 | > 12.9 | > 12.9 | 6.87 to 10 | 1.15 to 6.87
Nc1nc2ccccc2n1-c1ncnc(N2C(=O)c3ccccc3C2=O)n1 [Compound 653] | > 12.6 | > 12.6 | > 12.6 | > 12.6 | > 12.6 | > 12.6 | > 12.6 | > 12.6 |  |  |  | 
COc1cc(Nc2ncnc(Nc3cccc4ncccc34)n2)cc(OC)c1OC [Compound 695] | > 11.1 | < 0.989 | 0.989 to 5.93 | > 11.1 | > 11.1 | < 0.989 | 5.93 to 8.65 | 5.93 to 8.65 |  |  |  | 

Further lines, results first:

IC50 (c-Met) [µM] | IC50 (Lck) [µM] | IC50 (Itk) [µM] | IC50 (AKT) [µM] | IC50 (Zap-70) [µM] | IC50 (Kdr) [µM] | IC50 (EGFR) [µM] | IC50 (Tek) [µM] | IC50 (Lck; Table 3) [µM] | IC50 (Itk; Table 3) [µM] | IC50 (Zap-70; Table 3) [µM] | IC50 (Kdr; Table 3) [µM] | Compound
5.35 to 7.8 | 0.892 to 5.35 | 5.35 to 7.8 | > 10 | > 10 | 0.892 to 5.35 | 0.892 to 5.35 | 5.35 to 7.8 |  |  |  |  | CC(C)(C)OC(=O)NCc1cccc(Nc2ncnc(Nc3cc(-c4ccco4)n[nH]3)n2)c1 [Compound 985]
> 11 | 0.975 to 5.85 | > 11 | > 11 | > 11 | > 11 | > 11 | > 11 |  |  |  |  | COC(=O)C(c1ccccc1)c1ncnc(Nc2cc(OC)c(OC)c(OC)c2)n1 (stereo not shown) [Compound 1038]
0.872 to 5.23 | > 9.81 | 5.23 to 7.63 | > 9.81 | > 9.81 | 0.872 to 5.23 | 5.23 to 7.63 | 7.63 to 9.81 |  |  |  |  | CC(C)(C)OC(=O)NCc1cccc(Nc2ncnc(Nc3cc(-c4ccccc4)n[nH]3)n2)c1 [Compound 986]
1.05 to 6.28 | 9.15 to 11.8 | 1.05 to 6.28 | > 11.8 | > 11.8 | < 1.05 | > 11.8 | > 11.8 |  |  |  |  | Nc1nc2ccccc2n1-c1ncnc(Nc2ccc(S(N)(=O)=O)cc2)n1 [Compound 923]
> 8.8 | 6.84 to 8.8 | > 8.8 | > 8.8 | > 8.8 | 0.782 to 4.69 | > 8.8 | > 8.8 |  |  |  |  | COc1cc(Nc2ncnc(-n3c(NCCCc4ccccc4)nc4ccccc43)n2)cc(OC)c1OC [Compound 945]
1.03 to 6.2 | 1.03 to 6.2 | 1.03 to 6.2 | 9.03 to 11.6 | 1.03 to 6.2 | < 1.03 | 1.03 to 6.2 | 1.03 to 6.2 |  |  |  |  | O=C(O)Cc1ccc(Nc2ncnc(Nc3cc(-c4ccccc4)n[nH]3)n2)cc1 [Compound 982]
> 11.4 | > 11.4 | > 11.4 | > 11.4 | > 11.4 | > 11.4 | > 11.4 | > 11.4 |  |  |  |  | COc1cc(Nc2ncnc(Nc3ncnc4[nH]cnc34)n2)cc(OC)c1OC [Compound 696]
> 10.9 | > 10.9 | > 10.9 | > 10.9 | > 10.9 | 0.972 to 5.83 | > 10.9 | > 10.9 |  |  |  |  | COc1cc(Nc2ncnc(-c3cccnc3NCCCN)n2)cc(OC)c1OC [Compound 1078]
> 9.03 | > 9.03 | 4.81 to 7.02 | > 9.03 | > 9.03 | < 0.802 | > 9.03 | > 9.03 |  |  |  |  | COc1cc(Nc2ncnc(-n3c(NCCc4cccnc4)nc4ccccc43)n2)cc(OC)c1OC [Compound 947]
> 9.03 | > 9.03 | > 9.03 | > 9.03 | > 9.03 | > 9.03 | > 9.03 | > 9.03 |  |  |  |  | COc1cc(Nc2ncnc(-n3c(NCc4ncccc4C)nc4ccccc43)n2)cc(OC)c1OC [Compound 941]
> 9.03 | 4.81 to 7.02 | 4.81 to 7.02 | > 9.03 | > 9.03 | 0.802 to 4.81 | > 9.03 | > 9.03 |  |  |  |  | COc1cc(Nc2ncnc(-n3c(NCCc4ccncc4)nc4ccccc43)n2)cc(OC)c1OC [Compound 948]
